Experimental data: patent publication US10988477B2 (Merck Patent GmbH, priority 2018, dated 2021)
Like-named read-outs stand apart in the source and are kept apart here.

Experiments:
GCN2 kinase = GCN2 kinase (Homo sapiens, UniProt Q9P2K8); test: GCN2 enzyme inhibition assay (Transcreener ADP2 fluorescence polarization); type: biochemical; conditions: 280 μM ATP
Summary of the method: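 Human GCN2 (4 nM) preincubated 10 min with compound (0–8 μM) and 200 μM (RS)7 peptide in Tris-HCl pH 7.5, NaCl, MgCl2, DTT. Reaction started with 280 μM ATP, run 1 h at 25 °C. ADP detected by Transcreener fluorescence polarization. IC50 and Ki(app) fitted by tight-binding algorithm.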

[1] = biological target: intracellular GCN2 (phosphorylation of the GCN2 substrate eIF2α) (Homo sapiens, UniProt Q9P2K8); test: GCN2 cellular inhibition assay (AlphaScreen SureFire P-eIF2α Ser51, borrelidin-treated U2OS cells); type: cell-based
Sequence of intracellular GCN2 (phosphorylation of the GCN2 substrate eIF2α) (Q9P2K8 whole entry): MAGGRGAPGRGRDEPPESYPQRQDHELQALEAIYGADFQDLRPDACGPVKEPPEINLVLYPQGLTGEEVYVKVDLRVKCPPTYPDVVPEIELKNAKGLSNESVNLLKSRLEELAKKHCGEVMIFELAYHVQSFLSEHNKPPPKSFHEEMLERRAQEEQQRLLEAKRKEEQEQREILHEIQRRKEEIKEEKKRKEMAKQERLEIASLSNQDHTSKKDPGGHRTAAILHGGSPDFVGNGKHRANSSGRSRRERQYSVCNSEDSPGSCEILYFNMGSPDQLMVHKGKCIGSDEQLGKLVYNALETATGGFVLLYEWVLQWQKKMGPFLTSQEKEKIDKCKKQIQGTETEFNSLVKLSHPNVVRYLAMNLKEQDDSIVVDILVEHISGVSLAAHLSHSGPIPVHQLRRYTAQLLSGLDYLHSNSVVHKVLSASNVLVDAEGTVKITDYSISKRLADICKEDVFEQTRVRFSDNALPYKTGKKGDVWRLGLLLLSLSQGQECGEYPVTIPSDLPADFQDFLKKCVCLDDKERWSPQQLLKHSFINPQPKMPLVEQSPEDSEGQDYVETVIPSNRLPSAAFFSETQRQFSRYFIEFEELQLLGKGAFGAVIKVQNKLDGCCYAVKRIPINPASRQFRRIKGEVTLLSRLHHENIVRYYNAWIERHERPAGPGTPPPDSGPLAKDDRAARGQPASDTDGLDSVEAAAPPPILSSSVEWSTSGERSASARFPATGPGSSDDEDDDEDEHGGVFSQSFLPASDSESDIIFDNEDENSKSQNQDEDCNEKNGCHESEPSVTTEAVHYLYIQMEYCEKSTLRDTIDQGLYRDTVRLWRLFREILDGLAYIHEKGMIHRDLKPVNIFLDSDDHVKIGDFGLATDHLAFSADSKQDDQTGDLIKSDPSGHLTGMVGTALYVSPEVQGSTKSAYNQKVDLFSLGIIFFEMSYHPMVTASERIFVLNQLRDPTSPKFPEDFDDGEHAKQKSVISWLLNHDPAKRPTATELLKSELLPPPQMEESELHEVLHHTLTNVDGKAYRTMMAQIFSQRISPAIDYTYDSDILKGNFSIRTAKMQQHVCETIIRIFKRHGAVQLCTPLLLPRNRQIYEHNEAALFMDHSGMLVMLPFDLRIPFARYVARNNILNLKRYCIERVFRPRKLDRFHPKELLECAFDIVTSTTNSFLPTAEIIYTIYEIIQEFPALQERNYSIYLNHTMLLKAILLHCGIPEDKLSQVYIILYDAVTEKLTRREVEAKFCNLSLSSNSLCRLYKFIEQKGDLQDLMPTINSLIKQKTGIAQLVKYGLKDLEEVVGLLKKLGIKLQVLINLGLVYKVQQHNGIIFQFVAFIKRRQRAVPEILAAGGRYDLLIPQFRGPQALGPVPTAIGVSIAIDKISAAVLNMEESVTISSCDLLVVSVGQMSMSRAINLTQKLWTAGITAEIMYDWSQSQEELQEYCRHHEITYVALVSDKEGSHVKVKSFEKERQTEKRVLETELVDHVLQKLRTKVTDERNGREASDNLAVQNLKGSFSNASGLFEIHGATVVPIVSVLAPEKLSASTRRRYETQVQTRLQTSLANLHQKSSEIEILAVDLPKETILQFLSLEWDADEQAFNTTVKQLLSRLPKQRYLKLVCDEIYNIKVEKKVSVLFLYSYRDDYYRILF
Summary of the method: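 U2OS cells adhered overnight, then treated with compounds (4-fold serial dilutions from 40 μM final) plus borrelidin 10 μM final for 1 h at 37 °C. Lysate eIF2α Ser51 phosphorylation measured by AlphaScreen SureFire. Percent inhibition calculated relative to borrelidin-only wells.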

[2] = Enzyme activity for compounds of Formula IV, Ki(app), 25° C.
[3] = compounds of Formula IV, biomarker assay, phosphorylated eIF2α Ser51 in borrelidin-treated U2OS cells
[4] = compounds of Formula II, 4 nM GCN2 kinase
[5] = compounds of Formula II, biomarker assay, phosphorylated eIF2α Ser51 in borrelidin-treated U2OS cells
[6] = compounds of Formula V, 4 nM GCN2 kinase
[7] = compounds of Formula V, U2OS cells, 10 μM borrelidin, 1 h, read-out: GCN2 Biomarker (IC50)

Sequence of GCN2 kinase (Q9P2K8 whole entry): as above

Row | Ki (GCN2 kinase; [2]) [nM] | IC50 [1, 3] [nM] | Ki (GCN2 kinase; [4]) [nM] | IC50 [1, 5] [nM] | SMILES | other results
1 | 100 to 1000 | > 5000 |  |  | CC1C(c2cn[nH]c2)OCCN1c1ccnc(-c2cnc3cnc(Cl)cn23)n1 (single isomer, unassigned) [IV-245, 4-(2-(6-Chloroimidazo[1,2-a]pyrazin-3-yl)pyrimidin-4-yl)-3-methyl-2-(1H-pyrazol-4-yl)morpholine] | 
2 | 100 to 1000 | > 5000 |  |  | NC(=O)NCC1CCCN(c2ccnc(-c3cnc4cnc(C(F)F)cn34)n2)C1 (centres unmarked) [IV-41, 1-((1-(2-(6-(Difluoromethyl)imidazo[1,2-a]pyrazin-3-yl)pyrimidin-4-yl)piperidin-3-yl)methyl)urea] | 
3 |  |  | < 10 | < 500 | CS(=O)(=O)NCC1CN(c2cc(-c3cnc4ccc(C(F)F)nn34)ccn2)CCC1(F)F (centres unmarked) [II-153, N-[[1-[4-[6-(Difluoromethyl)imidazo[1,2-b]pyridazin-3-yl]-2-pyridyl]-4,4-difluoro-3-piperidyl]methyl]methanesulfonamide] | 
4 | < 10 | 500 to 5000 |  |  | CC1CN(c2cc(F)cc(-c3cnc4cnc(C(F)(F)F)cn34)n2)C(C)C(c2cn[nH]c2)N1 (centres unmarked) [IV-690, 3-(6-(2,5-Dimethyl-3-(1H-pyrazol-4-yl)piperazin-1-yl)-4-fluoropyridin-2-yl)-6-(trifluoromethyl)imidazo[1,2-a]pyrazine] | 
5 |  |  |  |  | CC1CC(CS(C)(=N)=O)C(C)N(c2ccnc(-c3cnc4sc(C(F)(F)F)cn34)n2)C1 (centres unmarked) [Compound V-17, ((2,5-Dimethyl-1-(2-(2-(trifluoromethyl)imidazo[2,1-b]thiazol-5-yl)pyrimidin-4-yl)piperidin-3-yl)methyl)(imino)(methyl)-λ^6-sulfanone] | Ki (GCN2 kinase; [6]): 10 to 100 nM; IC50 [1, 7]: 500 to 5000 nM
6 | 10 to 100 | > 5000 |  |  | CC1CN(c2ccnc(-c3cnc4cnc(C(F)(F)F)cn34)n2)CC(c2c[nH]cn2)O1 (single isomer, unassigned) [IV-406, 2-(1H-Imidazol-4-yl)-6-methyl-4-(2-(6-(trifluoromethyl)imidazo[1,2-a]pyrazin-3-yl)pyrimidin-4-yl)morpholine] | 
7 |  |  |  |  | CC1CN(c2cc(-c3cnn4ccc(C(F)F)nc34)ccn2)CC(CNS(C)(=O)=O)C1(F)F (centres unmarked) [III-7, N-[[1-[4-[5-(Difluoromethyl)pyrazolo[1,5-a]pyrimidin-3-yl]-2-pyridyl]-4,4-difluoro-5-methyl-3-piperidyl]methyl]methanesulfonamide] | Ki (GCN2 kinase; compounds of Formula III, 4 nM GCN2 kinase): < 10 nM; IC50 ([1]; compounds of Formula III, U2OS cells, 10 μM borrelidin, 1 h, read-out: GCN2 Biomarker (IC50)): 500 to 5000 nM
8 | < 10 | 500 to 5000 |  |  | FC(F)(F)c1cn2c(-c3nccc(N4CCC(c5cn[nH]c5)C4)n3)cnc2cn1 (single isomer, unassigned) [IV-540, 3-(4-(3-(1H-Pyrazol-4-yl)pyrrolidin-1-yl)pyrimidin-2-yl)-6-(trifluoromethyl)imidazo[1,2-a]pyrazine] | 
9 |  |  | 10 to 1000 | > 5000 | N#Cc1ccc2ncc(-c3cc(N4CCN5C(=O)CCCC5C4)ncn3)n2n1 (centres unmarked) [II-699, 3-(6-(6-Oxooctahydro-2H-pyrido[1,2-a]pyrazin-2-yl)pyrimidin-4-yl)imidazo[1,2-b]pyridazine-6-carbonitrile] | 
10 |  |  |  | 500 to 5000 | Cc1[nH]ncc1C1CN(c2cc(-c3cnc4ccc(C(F)(F)F)nn34)ncn2)CC(C)O1 (centres unmarked) [II-762, 2-methyl-6-(5-methyl-1H-pyrazol-4-yl)-4-(6-(6-(trifluoromethyl)imidazo[1,2-b]pyridazin-3-yl)pyrimidin-4-yl)morpholine] | IC50 (GCN2 kinase; [4]): 10 to 1000 nM
11 | < 10 | 500 to 5000 |  |  | CS(C)(=O)=NC1CC(c2cn[nH]c2)CN(c2ccnc(-c3cnc4cnc(C(F)(F)F)cn34)n2)C1 (single isomer, unassigned) [IV-399, ((5-(1H-Pyrazol-4-yl)-1-(2-(6-(trifluoromethyl)imidazo[1,2-a]pyrazin-3-yl)pyrimidin-4-yl)piperidin-3-yl)imino)dimethyl-λ^6-sulfanone] | 
12 |  |  | < 10 | 500 to 5000 | CNCCOc1cc(-c2cnc3ccc(C(F)F)nn23)cc(N2CCCC(CNS(C)(=O)=O)C2)n1 (centres unmarked) [II-74, N-((1-(4-(6-(Difluoromethyl)imidazo[1,2-b]pyridazin-3-yl)-6-(2-(methylamino)ethoxy)pyridin-2-yl)piperidin-3-yl)methyl)methanesulfonamide] | 
13 |  |  | 10 to 1000 | > 5000 | O=C(NCCO)C1CCCN(c2cc(-c3cnc4ccc(C(F)F)nn34)ncn2)C1 (centres unmarked) [II-191, 1-(6-(6-(Difluoromethyl)imidazo[1,2-b]pyridazin-3-yl)pyrimidin-4-yl)-N-(2-hydroxyethyl)piperidine-3-carboxamide] | 
14 |  |  | < 10 | < 500 | CC(NS(C)(=O)=O)C1CN(c2cc(-c3cnc4ccc(C(F)F)nn34)ncn2)CCO1 (centres unmarked) [II-177, N-(1-(4-(6-(6-(Difluoromethyl)imidazo[1,2-b]pyridazin-3-yl)pyrimidin-4-yl)morpholin-2-yl)ethyl)methanesulfonamide] | 
15 |  |  | 10 to 1000 | > 5000 | CS(C)(=O)=NC[C@@H]1CN(c2cc(-c3cnc4ccc(C(F)F)nn34)ccn2)CCO1 [II-102, [(2S)-4-[4-[6-(Difluoromethyl)imidazo[1,2-b]pyridazin-3-yl]-2-pyridyl]morpholin-2-yl]methylimino-dimethyl-oxo-sulfane] | 
16 |  |  | 10 to 1000 | 500 to 5000 | O=C1NCC2CN(c3cc(-c4cnc5ccc(C(F)F)nn45)ccn3)CCN12 (centres unmarked) [II-172, 7-(4-(6-(Difluoromethyl)imidazo[1,2-b]pyridazin-3-yl)pyridin-2-yl)hexahydroimidazo[1,5-a]pyrazin-3(2H)-one] | 
17 | 100 to 1000 | > 5000 |  |  | FC(F)c1cn2c(-c3nccc(N4CCCCC4)n3)cnc2cn1 [IV-103, 6-(Difluoromethyl)-3-(4-(piperidin-1-yl)pyrimidin-2-yl)imidazo[1,2-a]pyrazine] | 
18 |  |  | < 10 | 500 to 5000 | CC1(O)CCN(c2cc(-c3cnc4ccc(C(F)F)nn34)ncn2)CC1CNS(C)(=O)=O (centres unmarked) [II-239, N-((1-(6-(6-(Difluoromethyl)imidazo[1,2-b]pyridazin-3-yl)pyrimidin-4-yl)-4-hydroxy-4-methylpiperidin-3-yl)methyl)methanesulfonamide] | 
19 |  |  |  | 500 to 5000 | C[C@@H]1[C@H](CNS(C)(=O)=O)N(C2CC2)CCN1c1cc(-c2cnc3ccc(C(F)F)nn23)ncn1 [II-753, N-(((2S,3R)-1-cyclopropyl-4-(6-(6-(difluoromethyl)imidazo[1,2-b]pyridazin-3-yl)pyrimidin-4-yl)-3-methylpiperazin-2-yl)methyl)methanesulfonamide] | IC50 (GCN2 kinase; [4]): 10 to 1000 nM
20 | < 10 | 500 to 5000 |  |  | CC1C(c2cn[nH]c2)N(CCO)C(C)CN1c1ccnc(-c2cnc3cnc(C(F)(F)F)cn23)n1 (single isomer, unassigned) [IV-636, 2-(3,6-Dimethyl-2-(1H-pyrazol-4-yl)-4-(2-(6-(trifluoromethyl)imidazo[1,2-a]pyrazin-3-yl)pyrimidin-4-yl)piperazin-1-yl)ethan-1-ol] | 
21 | 100 to 1000 | > 5000 |  |  | OCCC1CCCN(c2ccnc(-c3cnc4cnc(C(F)(F)F)cn34)n2)C1 (centres unmarked) [IV-444, 2-(1-(2-(6-(Trifluoromethyl)imidazo[1,2-a]pyrazin-3-yl)pyrimidin-4-yl)piperidin-3-yl)ethan-1-ol] | 
22 |  |  |  |  | CS(=N)(=O)CC1CCCN(c2ccnc(-c3cnc4sc(C(F)(F)F)cn34)n2)C1 (racemic) [Compound V-18, Imino(methyl)((1-(2-(2-(trifluoromethyl)imidazo[2,1-b]thiazol-5-yl)pyrimidin-4-yl)piperidin-3-yl)methyl)-λ^6-sulfanone] | Ki (GCN2 kinase; [6]): 100 to 1000 nM; IC50 [1, 7]: > 5000 nM
23 |  |  | < 10 | < 500 | NS(=O)(=O)N1CCC2CCN(c3cc(-c4cnc5ccc(C(F)F)nn45)ncn3)C2C1 (centres unmarked) [II-344, 1-(6-(6-(Difluoromethyl)imidazo[1,2-b]pyridazin-3-yl)pyrimidin-4-yl)octahydro-6H-pyrrolo[2,3-c]pyridine-6-sulfonamide] | 
24 |  |  |  |  | FC(F)(F)c1cn2c(-c3nccc(N4CCO[C@H](c5cn[nH]c5)C4)n3)cnc2s1 (stereo in doubt) [Compound V-3, 2-(1H-Pyrazol-4-yl)-4-(2-(2-(trifluoromethyl)imidazo[2,1-b]thiazol-5-yl)pyrimidin-4-yl)morpholine] | Ki (GCN2 kinase; [6]): < 10 nM; IC50 [1, 7]: < 500 nM
25 |  |  | 10 to 1000 | 500 to 5000 | CS(=O)(=O)NC[C@@H]1CN(c2cc(-c3cnc4ccc(C(F)(F)F)nn34)ccn2)CCO1 [II-224, (S)—N-((4-(4-(6-(Trifluoromethyl)imidazo[1,2-b]pyridazin-3-yl)pyridin-2-yl)morpholin-2-yl)methyl)methanesulfonamide] | 
26 |  |  | 10 to 1000 | 500 to 5000 | CN1CCN(c2cc(-c3cnc4ccc(C(F)F)nn34)ncn2)CC12CN(S(C)(=O)=O)C2 [II-452, 8-(6-(6-(Difluoromethyl)imidazo[1,2-b]pyridazin-3-yl)pyrimidin-4-yl)-5-methyl-2-(methylsulfonyl)-2,5,8-triazaspiro[3.5]nonane] | 
27 | 10 to 100 | > 5000 |  |  | Cc1n[nH]c(C)c1C1CCN(c2ccnc(-c3cnc4cnc(C(F)(F)F)cn34)n2)C1 (centres unmarked) [IV-574, 3-(4-(3-(3,5-Dimethyl-1H-pyrazol-4-yl)pyrrolidin-1-yl)pyrimidin-2-yl)-6-(trifluoromethyl)imidazo[1,2-a]pyrazine] | 
28 |  |  | 10 to 1000 | 500 to 5000 | OCCC1CCCN(c2cc(-c3cnc4ccc(C(F)(F)F)nn34)ncn2)C1 (centres unmarked) [II-499, 2-(1-(6-(6-(Trifluoromethyl)imidazo[1,2-b]pyridazin-3-yl)pyrimidin-4-yl)piperidin-3-yl)ethan-1-ol] | 
